In patent publication US9278957B2, “Piperazine, piperidine and tetrahydropyridine derivatives and their pharmaceutical use” (ATIR Holding S.A., priority 2009, dated 2016):

Key:
dopamine D2 receptor = dopamine D2 receptor (Homo sapiens, UniProt P14416); assay: dopamine D2 receptor binding (inhibition of labeled ligand binding); settings: compound at 1micrMol
Experimental: (§1) The compounds of the invention may be used in the treatment of CNS disorders in mammals, especially human. Of particular interest is the use of the compounds of the invention as anti-dyskinetic agents. Dyskinesia is a serious side effect associated with L-DOPA treatment of patients with Parkinson's disease.
(§2) The compounds of Examples 1, 3, 4 and 9 were tested for their 5-HT1A receptor binding activity and dopamine (D2, D3 and D4.4) receptors binding activity according to the protocols set forth above. The percentage inhibition of labeled ligand binding caused by the indicated few test ligand compound of the invention at different concentrations of said test ligand is shown in Table I.

[1] = system: L-DOPA induced dyskinesia in parkinsonian rats; assay: L-DOPA-induced abnormal involuntary movements (AIMS) in the 6-OHDA lesion rat model; format: in vivo
Experimental: In the following study, the compound of Example 2 was tested for its in vivo activity against L-DOpA induced dyskinesia in parkinsonian rats (the model is the L-DOPA-induced abnormal involuntary movements (AIMS) in the 6-hydroxydopamine (6-OHDA) lesion rat model).
Rats were unilaterally lesioned with (6-OHDA) in medial forebrain bundle. Three weeks later, rats were injected with apomorphine (0.1 mg/kg s.c.) and numbers of contralateral turns were counted using a rotameter. Two weeks after the apomorphine test, rats showing marked turning activity were selected and split into 2 groups:
The experimental group, which received the compound of Example 2, and the control group, which received the injection medium for said compound (CMC in saline); n=5 and 3 respectively.
All animals were treated daily with L-dopa/carbidopa (25/6 mg/kg respectively) and dyskinetic movements were scored commencing day 5. Compounds were administered in escalating dose, at daily doses shown below, commencing day 11 of L-dopa treatment: 1 mg/kg—11th day, 1 mg/kg—12th, 2 mg/kg—15th, 2 mg/kg—16th. On the 17th day, the rats of the control group were injected with propranolol (10 mg/kg in saline), whereas the rats of the experimental group were injected with saline. […]
The following dyskinetic movements were scored: dystonic posturing, head and upper body movements, forelimb, locomotion, trunk, orolingual.

dopamine D4.4 receptor = target: T1, dopamine D4.4 receptor (Homo sapiens, UniProt P21917); assay: dopamine D4.4 receptor binding (inhibition of labeled ligand binding); settings: compound at 1micrMol
T1 sequence (P21917 1-419): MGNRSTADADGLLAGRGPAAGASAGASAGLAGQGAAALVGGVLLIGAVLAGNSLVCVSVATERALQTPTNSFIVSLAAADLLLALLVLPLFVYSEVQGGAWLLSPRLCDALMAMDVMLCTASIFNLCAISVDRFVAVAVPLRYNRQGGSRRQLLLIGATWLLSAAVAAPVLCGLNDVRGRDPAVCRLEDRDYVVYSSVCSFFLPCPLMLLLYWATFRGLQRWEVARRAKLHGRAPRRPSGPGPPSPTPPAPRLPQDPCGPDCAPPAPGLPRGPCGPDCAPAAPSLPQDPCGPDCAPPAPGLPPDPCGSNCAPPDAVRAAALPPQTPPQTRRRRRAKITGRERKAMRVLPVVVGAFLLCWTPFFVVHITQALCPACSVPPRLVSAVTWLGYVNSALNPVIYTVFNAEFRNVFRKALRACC
Experimental: as §1, §2

dopamine D3 receptor = dopamine D3 receptor (Homo sapiens, UniProt P35462); assay: dopamine D3 receptor binding (inhibition of labeled ligand binding); settings: compound at 1micrMol
Chain of dopamine D3 receptor (P35462 whole entry): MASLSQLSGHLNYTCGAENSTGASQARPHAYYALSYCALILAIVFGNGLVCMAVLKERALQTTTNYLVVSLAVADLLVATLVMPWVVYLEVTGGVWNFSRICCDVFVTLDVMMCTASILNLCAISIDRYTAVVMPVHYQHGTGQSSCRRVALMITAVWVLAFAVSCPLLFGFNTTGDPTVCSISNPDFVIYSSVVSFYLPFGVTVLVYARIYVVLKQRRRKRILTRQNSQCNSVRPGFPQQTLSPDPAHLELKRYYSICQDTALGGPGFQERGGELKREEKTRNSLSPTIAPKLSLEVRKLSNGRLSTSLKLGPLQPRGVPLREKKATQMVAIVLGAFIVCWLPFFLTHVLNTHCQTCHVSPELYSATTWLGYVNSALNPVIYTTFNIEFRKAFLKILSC
Experimental: as §1, §2

5-HT1A receptor = target: T2, 5-HT1A receptor (Homo sapiens, UniProt P08908); assay: 5-HT1A receptor binding (inhibition of labeled ligand binding); settings: compound at 1micrMol
T2 sequence (P08908 1-422): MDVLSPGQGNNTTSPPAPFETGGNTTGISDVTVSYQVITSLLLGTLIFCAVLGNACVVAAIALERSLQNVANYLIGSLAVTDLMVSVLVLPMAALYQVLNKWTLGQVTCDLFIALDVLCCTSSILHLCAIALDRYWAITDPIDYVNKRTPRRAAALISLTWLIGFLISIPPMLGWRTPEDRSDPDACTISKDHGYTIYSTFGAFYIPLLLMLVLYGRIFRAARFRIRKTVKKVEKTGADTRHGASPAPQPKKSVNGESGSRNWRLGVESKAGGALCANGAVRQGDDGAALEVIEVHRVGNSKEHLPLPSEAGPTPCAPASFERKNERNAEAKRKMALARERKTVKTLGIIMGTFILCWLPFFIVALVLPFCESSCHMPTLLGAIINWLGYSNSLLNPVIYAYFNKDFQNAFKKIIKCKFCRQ
Experimental: as §1, §2

Chain of dopamine D2 receptor (P14416 whole entry): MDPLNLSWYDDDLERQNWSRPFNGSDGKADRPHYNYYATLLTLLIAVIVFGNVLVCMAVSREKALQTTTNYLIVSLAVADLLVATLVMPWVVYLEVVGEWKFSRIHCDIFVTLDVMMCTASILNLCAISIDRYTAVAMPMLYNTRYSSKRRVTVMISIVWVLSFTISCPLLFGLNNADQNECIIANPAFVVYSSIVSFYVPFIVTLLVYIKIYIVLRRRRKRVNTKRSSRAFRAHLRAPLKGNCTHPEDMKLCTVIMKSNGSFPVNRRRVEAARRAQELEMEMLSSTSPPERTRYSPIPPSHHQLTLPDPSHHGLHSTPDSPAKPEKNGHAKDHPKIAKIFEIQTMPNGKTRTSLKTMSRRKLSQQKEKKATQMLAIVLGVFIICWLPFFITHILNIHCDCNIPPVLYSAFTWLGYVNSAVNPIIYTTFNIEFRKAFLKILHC

| Structure (SMILES) | D2 binding, percentage inhibition of labeled ligand binding (dopamine D2 receptor) [%] | anti-dyskinetic effect (AIM score, sum of all movements) ([1]; 6-OHDA lesioned rats on daily L-dopa/carbidopa 25/6 mg/kg, 16th day, second successive daily dose of 2 mg/kg) | D4 binding, percentage inhibition of labeled ligand binding (dopamine D4.4 receptor) [%] | D3 binding, percentage inhibition of labeled ligand binding (dopamine D3 receptor) [%] | 5-HT1A binding, percentage inhibition of labeled ligand binding (5-HT1A receptor) [%] | effect on abnormal involuntary movements (AIM score) ([1]; 6-OHDA lesioned rats on L-dopa/carbidopa, control group, 10 mg/kg in saline on the 17th day) |
| --- | --- | --- | --- | --- | --- | --- |
| Oc1cccc(N2CCN(Cc3cccc4c3oc3ccccc34)CC2)c1 [Example L-33] | 75 | strong anti-dyskinetic effect | 77.7 | 78.2 | 43.4 | – |
| c1ccc(C2CCN(Cc3cccc4c3oc3ccccc34)CC2)cc1 [Example L-105] | 93.8 | – | 69.1 | 44.5 | 42.2 | – |
| COc1ccccc1N1CCN(Cc2cccc3c2oc2ccccc23)CC1 [Example L-107] | 96 | – | 78 | 33.7 | 86.7 | – |
| N#Cc1ccccc1N1CCN(Cc2cccc3c2oc2ccccc23)CC1 [Example L-109] | 68.7 | – | 64.9 | 63.2 | 73.5 | – |
| CC(C)NCC(O)COc1cccc2ccccc12 (stereo not drawn) [Propanolol, propranolol, reference compound] | – | – | – | – | – | reduced the abnormal involuntary movements |
